Experimental data: patent US20110263664A1, “Inhibitors of PIM-1 Protein Kinases, Compositions and Methods for Treating Prostate Cancer” (MUSC FOUNDATION FOR RESEARCH DEVELOPMENT, priority 2007, published 2011)

What was measured:
Type in all cases: biochemical
AKT1 = AKT1 (Homo sapiens, UniProt P31749); assay: Kinase selectivity, Table 5: AKT1; settings: read-out: selectivity data (inhibition), AKT1
AKT2 = AKT2 (Homo sapiens, UniProt P31751); assay: Kinase selectivity, Table 5: AKT2; settings: read-out: selectivity data (inhibition), AKT2
AKT3 = AKT3 (Homo sapiens, UniProt Q9Y243); assay: Kinase selectivity, Table 5: AKT3; settings: read-out: selectivity data (inhibition), AKT3
AurA = AurA (Homo sapiens, UniProt O14965); assay: Kinase selectivity, Table 5: AurA; settings: read-out: selectivity data (inhibition), AurA
BTK = BTK (Homo sapiens, UniProt Q06187); assay: Kinase selectivity, Table 5: BTK; settings: read-out: selectivity data (inhibition), BTK
CAMK4 = CAMK4 (Homo sapiens, UniProt Q16566); assay: Kinase selectivity, Table 5: CAMK4; settings: read-out: selectivity data (inhibition), CAMK4
CDK2 = CDK2 (Homo sapiens, UniProt P24941); assay: Kinase selectivity, Table 5: CDK2; settings: read-out: selectivity data (inhibition), CDK2
CHK1 = CHK1 (Homo sapiens, UniProt O14757); assay: Kinase selectivity, Table 5: CHK1; settings: read-out: selectivity data (inhibition), CHK1
CK1δ = CK1δ (Homo sapiens, UniProt P48730); assay: Kinase selectivity, Table 5: CK1δ; settings: read-out: selectivity data (inhibition), CK1δ
c-Raf = c-Raf (Homo sapiens, UniProt P04049); assay: Kinase selectivity, Table 5: c-Raf; settings: read-out: selectivity data (inhibition), c-Raf
DYRK1α = DYRK1α (Homo sapiens, UniProt Q13627); assay: Kinase selectivity, Table 5: DYRK1α; settings: read-out: selectivity data (inhibition), DYRK1α
Erk2 = Erk2 (Homo sapiens, UniProt P28482); assay: Kinase selectivity, Table 5: Erk2; settings: read-out: selectivity data (inhibition), Erk2
FYN = FYN (Homo sapiens, UniProt P06241); assay: Kinase selectivity, Table 5: FYN; settings: read-out: selectivity data (inhibition), FYN
Chain of FYN (P06241 whole entry, species assumed): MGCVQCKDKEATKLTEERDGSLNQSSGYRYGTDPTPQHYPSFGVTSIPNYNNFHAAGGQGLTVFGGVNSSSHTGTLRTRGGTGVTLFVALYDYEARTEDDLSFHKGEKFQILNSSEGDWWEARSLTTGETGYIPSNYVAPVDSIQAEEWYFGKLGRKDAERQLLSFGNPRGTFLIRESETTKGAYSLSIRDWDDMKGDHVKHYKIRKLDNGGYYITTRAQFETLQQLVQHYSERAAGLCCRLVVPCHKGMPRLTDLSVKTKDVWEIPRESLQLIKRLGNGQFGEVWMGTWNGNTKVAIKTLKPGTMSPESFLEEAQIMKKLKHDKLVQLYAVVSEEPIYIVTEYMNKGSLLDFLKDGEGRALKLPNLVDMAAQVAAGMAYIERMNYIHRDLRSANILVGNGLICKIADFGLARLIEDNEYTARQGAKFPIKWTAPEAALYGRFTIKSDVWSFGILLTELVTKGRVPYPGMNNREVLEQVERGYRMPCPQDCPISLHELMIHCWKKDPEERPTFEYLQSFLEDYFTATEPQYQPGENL

GSK3β = GSK3β (Homo sapiens, UniProt P49841); assay: Kinase selectivity, Table 5: GSK3β; settings: read-out: selectivity data (inhibition), GSK3β
HGK = HGK (Homo sapiens, UniProt O95819); assay: Kinase selectivity, Table 5: HGK; settings: read-out: selectivity data (inhibition), HGK
Chain of HGK (O95819 whole entry, species assumed): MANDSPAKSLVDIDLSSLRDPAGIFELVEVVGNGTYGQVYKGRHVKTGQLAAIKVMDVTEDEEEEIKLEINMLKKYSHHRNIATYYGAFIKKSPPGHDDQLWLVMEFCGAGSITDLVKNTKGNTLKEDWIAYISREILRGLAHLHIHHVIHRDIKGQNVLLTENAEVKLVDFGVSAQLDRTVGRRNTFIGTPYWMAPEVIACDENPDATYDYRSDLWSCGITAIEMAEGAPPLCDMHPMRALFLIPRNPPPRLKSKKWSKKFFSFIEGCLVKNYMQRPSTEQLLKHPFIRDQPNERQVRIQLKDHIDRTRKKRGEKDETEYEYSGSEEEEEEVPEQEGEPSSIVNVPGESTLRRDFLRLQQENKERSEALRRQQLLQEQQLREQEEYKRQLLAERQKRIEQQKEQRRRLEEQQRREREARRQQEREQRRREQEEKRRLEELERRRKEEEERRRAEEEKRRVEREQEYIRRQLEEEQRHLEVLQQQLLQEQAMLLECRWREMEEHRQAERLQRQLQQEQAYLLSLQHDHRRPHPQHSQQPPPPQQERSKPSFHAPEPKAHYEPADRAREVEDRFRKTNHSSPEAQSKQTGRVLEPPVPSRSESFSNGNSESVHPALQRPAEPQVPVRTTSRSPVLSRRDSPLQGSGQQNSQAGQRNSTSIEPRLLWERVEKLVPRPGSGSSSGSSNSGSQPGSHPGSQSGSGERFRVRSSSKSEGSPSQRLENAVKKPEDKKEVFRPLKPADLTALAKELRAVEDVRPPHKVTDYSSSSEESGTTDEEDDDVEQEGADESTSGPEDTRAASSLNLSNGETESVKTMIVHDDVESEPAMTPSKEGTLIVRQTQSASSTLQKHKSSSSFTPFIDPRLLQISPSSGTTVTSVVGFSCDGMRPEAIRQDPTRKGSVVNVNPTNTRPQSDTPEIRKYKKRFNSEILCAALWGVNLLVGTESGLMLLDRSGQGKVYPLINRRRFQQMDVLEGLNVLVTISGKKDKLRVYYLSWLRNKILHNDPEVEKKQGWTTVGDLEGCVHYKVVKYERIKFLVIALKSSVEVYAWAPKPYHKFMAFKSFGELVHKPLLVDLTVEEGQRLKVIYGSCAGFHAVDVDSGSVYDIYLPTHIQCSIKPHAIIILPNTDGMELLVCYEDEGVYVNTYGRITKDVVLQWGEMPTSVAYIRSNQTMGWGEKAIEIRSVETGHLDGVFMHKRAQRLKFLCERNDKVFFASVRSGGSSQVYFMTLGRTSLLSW

INSR = INSR (Homo sapiens, UniProt P06213); assay: Kinase selectivity, Table 5: INSR; settings: read-out: selectivity data (inhibition), INSR
IRAK4 = IRAK4 (Homo sapiens, UniProt Q9NWZ3); assay: Kinase selectivity, Table 5: IRAK4; settings: read-out: selectivity data (inhibition), IRAK4
JAK2 = JAK2 (Homo sapiens, UniProt O60674); assay: Kinase selectivity, Table 5: JAK2; settings: read-out: selectivity data (inhibition), JAK2
JNK2 = JNK2 (Homo sapiens, UniProt P45984); assay: Kinase selectivity, Table 5: JNK2; settings: read-out: selectivity data (inhibition), JNK2
KDR = KDR (Homo sapiens, UniProt P35968); assay: Kinase selectivity, Table 5: KDR; settings: read-out: selectivity data (inhibition), KDR
LYN = LYN (Homo sapiens, UniProt P07948); assay: Kinase selectivity, Table 5: LYN; settings: read-out: selectivity data (inhibition), LYN
MAPKAPK2 = MAPKAPK2 (Homo sapiens, UniProt P49137); assay: Kinase selectivity, Table 5: MAPKAPK2; settings: read-out: selectivity data (inhibition), MAPKAPK2
MET = MET (Homo sapiens, UniProt P08581); assay: Kinase selectivity, Table 5: MET; settings: read-out: selectivity data (inhibition), MET
MST2 = MST2 (Homo sapiens, UniProt Q13188); assay: Kinase selectivity, Table 5: MST2; settings: read-out: selectivity data (inhibition), MST2
p38α = p38α (Homo sapiens, UniProt Q16539); assay: Kinase selectivity, Table 5: p38α; settings: read-out: selectivity data (inhibition), p38α
p70S6K = p70S6K (Homo sapiens, UniProt P23443); assay: Kinase selectivity, Table 5: p70S6K; settings: read-out: selectivity data (inhibition), p70S6K
Chain of p70S6K (P23443 whole entry): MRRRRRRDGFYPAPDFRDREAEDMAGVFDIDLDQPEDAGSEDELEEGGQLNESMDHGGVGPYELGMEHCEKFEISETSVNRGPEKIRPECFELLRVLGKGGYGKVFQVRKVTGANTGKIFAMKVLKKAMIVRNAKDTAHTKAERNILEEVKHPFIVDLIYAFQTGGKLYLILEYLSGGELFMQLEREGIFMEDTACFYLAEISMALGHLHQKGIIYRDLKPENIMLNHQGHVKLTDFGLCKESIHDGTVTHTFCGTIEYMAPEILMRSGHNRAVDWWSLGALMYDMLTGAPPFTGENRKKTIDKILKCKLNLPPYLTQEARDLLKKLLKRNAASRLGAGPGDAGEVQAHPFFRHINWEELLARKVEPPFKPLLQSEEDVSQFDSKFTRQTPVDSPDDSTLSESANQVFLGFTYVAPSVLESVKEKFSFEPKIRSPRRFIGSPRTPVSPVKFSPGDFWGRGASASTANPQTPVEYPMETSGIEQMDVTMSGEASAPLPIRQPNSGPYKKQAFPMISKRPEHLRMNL

PIM1 = PIM1 (Homo sapiens, UniProt P11309); assay: Kinase selectivity, Table 5: PIM1; settings: read-out: selectivity data (inhibition), PIM1
PKCβ2 = PKCβ2 (Homo sapiens, UniProt P05771); assay: Kinase selectivity, Table 5: PKCβ2; settings: read-out: selectivity data (inhibition), PKCβ2
PKCζ = PKCζ (Homo sapiens, UniProt Q05513); assay: Kinase selectivity, Table 5: PKCζ; settings: read-out: selectivity data (inhibition), PKCζ
PKD2 = PKD2 (Homo sapiens, UniProt Q9BZL6); assay: Kinase selectivity, Table 5: PKD2; settings: read-out: selectivity data (inhibition), PKD2
Chain of PKD2 (Q9BZL6 whole entry): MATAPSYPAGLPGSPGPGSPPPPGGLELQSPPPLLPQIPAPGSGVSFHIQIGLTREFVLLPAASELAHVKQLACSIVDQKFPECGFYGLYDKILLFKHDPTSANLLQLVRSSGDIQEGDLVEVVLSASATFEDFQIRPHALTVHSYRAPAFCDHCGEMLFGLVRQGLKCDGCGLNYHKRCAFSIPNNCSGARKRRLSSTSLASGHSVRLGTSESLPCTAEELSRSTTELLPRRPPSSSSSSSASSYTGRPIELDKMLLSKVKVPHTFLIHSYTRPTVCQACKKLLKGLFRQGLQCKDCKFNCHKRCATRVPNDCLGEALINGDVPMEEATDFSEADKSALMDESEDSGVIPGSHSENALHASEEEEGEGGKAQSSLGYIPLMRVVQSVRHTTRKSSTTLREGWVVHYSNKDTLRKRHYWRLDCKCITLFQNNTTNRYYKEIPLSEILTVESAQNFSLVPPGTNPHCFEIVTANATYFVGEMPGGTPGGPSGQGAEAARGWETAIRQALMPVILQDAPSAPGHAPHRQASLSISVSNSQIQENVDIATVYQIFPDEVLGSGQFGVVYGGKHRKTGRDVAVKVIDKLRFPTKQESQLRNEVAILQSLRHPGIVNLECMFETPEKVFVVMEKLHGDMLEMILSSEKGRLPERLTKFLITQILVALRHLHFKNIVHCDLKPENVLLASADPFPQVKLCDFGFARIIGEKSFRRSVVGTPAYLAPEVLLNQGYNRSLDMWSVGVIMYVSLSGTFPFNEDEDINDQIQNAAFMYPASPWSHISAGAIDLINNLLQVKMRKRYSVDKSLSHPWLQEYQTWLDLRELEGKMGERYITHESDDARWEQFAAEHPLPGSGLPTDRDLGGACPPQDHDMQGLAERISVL

ROCK2 = ROCK2 (Homo sapiens, UniProt O75116); assay: Kinase selectivity, Table 5: ROCK2; settings: read-out: selectivity data (inhibition), ROCK2
Chain of ROCK2 (O75116 whole entry, species assumed): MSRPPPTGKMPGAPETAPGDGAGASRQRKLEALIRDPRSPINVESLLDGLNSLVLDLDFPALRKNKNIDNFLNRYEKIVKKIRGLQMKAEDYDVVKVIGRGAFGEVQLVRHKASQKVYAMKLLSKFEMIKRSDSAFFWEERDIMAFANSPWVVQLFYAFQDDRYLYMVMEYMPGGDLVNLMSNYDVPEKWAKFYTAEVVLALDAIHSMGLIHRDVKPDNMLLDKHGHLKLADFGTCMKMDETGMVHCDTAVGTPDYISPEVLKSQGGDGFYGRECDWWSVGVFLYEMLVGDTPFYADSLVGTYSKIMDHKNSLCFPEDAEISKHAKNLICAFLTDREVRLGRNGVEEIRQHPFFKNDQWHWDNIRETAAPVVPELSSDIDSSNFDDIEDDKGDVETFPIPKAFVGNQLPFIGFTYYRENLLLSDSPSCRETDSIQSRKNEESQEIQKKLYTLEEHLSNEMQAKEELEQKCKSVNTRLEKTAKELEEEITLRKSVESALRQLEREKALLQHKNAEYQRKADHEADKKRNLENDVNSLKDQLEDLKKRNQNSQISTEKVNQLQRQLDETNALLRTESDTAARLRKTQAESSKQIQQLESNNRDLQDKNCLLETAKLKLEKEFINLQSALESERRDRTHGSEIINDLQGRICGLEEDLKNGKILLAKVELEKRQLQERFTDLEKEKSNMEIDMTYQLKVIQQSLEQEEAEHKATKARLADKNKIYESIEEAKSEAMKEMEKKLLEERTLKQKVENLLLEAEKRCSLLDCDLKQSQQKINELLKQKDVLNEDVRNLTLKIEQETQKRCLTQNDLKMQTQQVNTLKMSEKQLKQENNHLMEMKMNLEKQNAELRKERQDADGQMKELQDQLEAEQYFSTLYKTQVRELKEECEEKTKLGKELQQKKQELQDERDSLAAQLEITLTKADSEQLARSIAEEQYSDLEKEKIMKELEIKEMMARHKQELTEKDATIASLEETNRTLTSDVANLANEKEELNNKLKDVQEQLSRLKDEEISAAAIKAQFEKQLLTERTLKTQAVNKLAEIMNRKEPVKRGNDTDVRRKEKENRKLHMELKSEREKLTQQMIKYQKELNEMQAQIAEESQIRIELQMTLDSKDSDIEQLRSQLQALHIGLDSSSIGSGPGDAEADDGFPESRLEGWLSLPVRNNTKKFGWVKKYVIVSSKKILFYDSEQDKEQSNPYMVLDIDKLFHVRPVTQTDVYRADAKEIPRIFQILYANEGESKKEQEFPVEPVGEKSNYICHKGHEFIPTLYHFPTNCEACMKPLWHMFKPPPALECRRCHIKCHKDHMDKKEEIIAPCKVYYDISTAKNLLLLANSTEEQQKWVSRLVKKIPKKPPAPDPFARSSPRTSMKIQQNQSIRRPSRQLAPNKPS

SGK1 = SGK1 (Homo sapiens, UniProt O00141); assay: Kinase selectivity, Table 5: SGK1; settings: read-out: selectivity data (inhibition), SGK1
SRC = SRC (Homo sapiens, UniProt P12931); assay: Kinase selectivity, Table 5: SRC; settings: read-out: selectivity data (inhibition), SRC
Chain of SRC (P12931 whole entry, species assumed): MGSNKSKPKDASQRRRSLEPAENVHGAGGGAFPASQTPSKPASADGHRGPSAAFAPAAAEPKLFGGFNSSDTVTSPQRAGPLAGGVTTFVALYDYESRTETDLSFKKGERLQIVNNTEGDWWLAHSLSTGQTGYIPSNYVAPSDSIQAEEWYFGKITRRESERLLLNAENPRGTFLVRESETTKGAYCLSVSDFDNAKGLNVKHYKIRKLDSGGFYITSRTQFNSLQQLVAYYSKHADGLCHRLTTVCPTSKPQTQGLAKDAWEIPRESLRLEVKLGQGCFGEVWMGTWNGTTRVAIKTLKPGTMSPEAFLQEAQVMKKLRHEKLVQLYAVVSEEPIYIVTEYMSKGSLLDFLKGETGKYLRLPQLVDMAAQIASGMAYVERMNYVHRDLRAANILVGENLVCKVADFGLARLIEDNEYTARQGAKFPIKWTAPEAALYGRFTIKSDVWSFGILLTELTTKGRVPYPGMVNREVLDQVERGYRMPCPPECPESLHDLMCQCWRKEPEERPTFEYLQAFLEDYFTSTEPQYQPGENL

SYK = SYK (Homo sapiens, UniProt P43405); assay: Kinase selectivity, Table 5: SYK; settings: read-out: selectivity data (inhibition), SYK

`CC(C)c1ccc(C=C2SC(=O)NC2=O)cc1` [5-(4-iso-propylbenzylidene)thiazolidine-2,4-dione] was tested, and the inhibition at 5 µM (AKT1) was 6%, the inhibition at 5 µM (AKT2) was -1% and the inhibition at 5 µM (AKT3) was 3%. For the same molecule, the inhibition at 5 µM (AurA) was 4%, the inhibition at 5 µM (BTK) was 7% and the inhibition at 5 µM (CAMK4) was -8%. The inhibition at 5 µM (CDK2) was -2%, the inhibition at 5 µM (CHK1) was -20% and the inhibition at 5 µM (CK1δ) was 7%. The inhibition at 5 µM (c-Raf) was -1%, the inhibition at 5 µM (DYRK1α) was 68% and the inhibition at 5 µM (Erk2) was -1%. The inhibition at 5 µM (FYN) was 0%, the inhibition at 5 µM (GSK3β) was 3% and the inhibition at 5 µM (HGK) was 9%. For the same molecule, the inhibition at 5 µM (INSR) was 4%, the inhibition at 5 µM (IRAK4) was 5% and the inhibition at 5 µM (JAK2) was 18%. For the same molecule, the inhibition at 5 µM (JNK2) was 14%, the inhibition at 5 µM (KDR) was -4% and the inhibition at 5 µM (LYN) was 8%. The inhibition at 5 µM (MAPKAPK2) was 5%, the inhibition at 5 µM (MET) was -6% and the inhibition at 5 µM (MST2) was 1%. For the same molecule, the inhibition at 5 µM (p38α) was 0%, the inhibition at 5 µM (p70S6K) was 8% and the inhibition at 5 µM (PIM1) was 36%. For the same molecule, the inhibition at 5 µM (PKCβ2) was -1%, the inhibition at 5 µM (PKCζ) was 3% and the inhibition at 5 µM (PKD2) was -3%. For the same molecule, the inhibition at 5 µM (ROCK2) was 5%, the inhibition at 5 µM (SGK1) was 5% and the inhibition at 5 µM (SRC) was 4%. It also gave an inhibition at 5 µM (SYK) of -3%.
